Results on one compound are retold here after US9526243B2, “Pollination success and seed set in corn hybrid seed production” (priority 2012, dated 2016).

SMILES strings stand for the structures.

Type in all cases: in vivo, corn (maize, Zea mays)
The subject of data set [1] is male parent plant of Hybrid A (corn). From the text:
Hybrid A is a three-way corn hybrid which performs well in rain-fed areas in India. The female parent of this hybrid is a single cross and male parent is an inbred. […] The ear height in female is 94 cm and male plant height (including tassel length) is 190 cm. The ratio of male parent plant height to female parent ear height is 2.02. This is not favorable for pollen dispersal and cross fertilization. A taller male gives a very clear advantage in easy spread of pollen. Further, a height disadvantage is amplified where the female is a single cross and male is inbred, as the robust female parent suppresses male parent growth. […] With less seed yield due to low seed set, seed production may be uneconomical in Hybrid A. Controlled use of Gibberellic Acid as foliar spray for male parent helped increase the plant height and thereby facilitated easier dispersal of pollen for better pollination success.
When GA3 was sprayed on male parent at a given dosage, the last few internodes were elongated and the plant height was increased by 33 cm. The ratio of male parent plant height to female parent ear height increased from 2.02 in control (no GA3 spray) to 2.40 after spray. This spray was done when a minimum of 80% of the plants had the tassel wrapped in two leaves.
A field trial was conducted to study the impact of GA3 on male parent plant height and also seed yield in hybrid seed production. GA3 dose of 10 g (dissolved in 100 ml alcohol) was sprayed in one acre of male plants (25% of area in 3:1 row ratio) when male tassel is wrapped up in two leaves.

The subject of data set [2] is Inbred B male plants (corn). The data set is described as follows: GA3 spray to increase male inbred height, Inbred B (Brazil). The conditions noted are these: for plant height increase: one application before flowering, 365 g GA3 (10% active ingredient) per hectare. The procedure: (§1) GA3 spray to increase male inbred height was also tested with 2 more inbreds, Inbred B and Inbred C, in Brazil.
Inbred B was sown in two sequential plantings, separated by 80 to 100 heat units. The first planting is referred to as the primary male; the second planting is referred to as the secondary male. The two male plantings were separated in the field by 40 cm; minimum distance from female rows was 70 cm.
(§2) Data were collected after the following treatments: (a) control, (b) GA3: one application, before flowering, when the tassel is enveloped in 2 leaves; (b) GA3: 2 sequential applications, one at V6 stage and 1 application before flowering. The concentration of GA3 used was 365 g of GA3 (10% active ingredient) per hectare (which is approximately equivalent to 40 g of GA3 at 90% active ingredient), and the spray volume was 130 liters/hectare.
(§3) The plot had 5.20 meter length of each row and 60 cm between plots. Ten male plants in sequence for each male row (primary male and secondary male separate) were measured and the average calculation was obtained and replicated 5 times in different plots. Measurements taken were plant height; length of primary rachis of the tassel; number of secondary tassel branches; and visual pollen score where 1=no pollen (sterile), 5=average amount of pollen, and 9=large amount of pollen.

The subject of data set [3] is Inbred C male plants (corn). Nature of the data set: GA3 spray to increase male inbred height, Inbred C (Brazil). How it is done:
as §1, §2, §3

[4] abbreviates: Inbred B, one GA application vs control.
Where [5] appears, read: Inbred B, two sequential GA treatments (V6 and before flowering), relative to control, primary and secondary males.

As for `C=C1C[C@]23C[C@@]1(O)CC[C@H]2[C@@]12C=C[C@H](O)[C@@](C)(C(=O)O1)[C@H]2[C@@H]3C(=O)O` [GA3, gibberellin A3], the yield improvement in data set [1] (Hybrid A experimental plot, GA3 treatment vs control) came to 32%. Further, the “hybrid seed yield with GA3 treatment” value in data set [1] (Hybrid A experimental plot, control 607 Kg/Acre) is 803 Kg/Acre. Besides, the “negative or deleterious effects on other plant processes” value in data set [1] (Hybrid A male parent after GA3 spray) is on record as “without any negative or deleterious effects”. In data set [1] (Hybrid A male parent, GA3 10 g sprayed when tassel wrapped in two leaves, vs control (no GA3 spray)), the “increase in male parent plant height” value was 33 cm. The “male parent plant height increase” value in data set [1] (Hybrid A male parent, after spraying GA3, from 190 cm) is 17%. Besides, in data set [1] (Hybrid A male parent, control 190 cm), the “male parent plant height after spraying GA3” value is on record as 223 cm. Also, the “ratio of male parent plant height to female parent ear height after spray” value in data set [1] (Hybrid A, after GA3 spray, control 2.02) is 2.40. Moreover, the plant height increase entry is “about 10 cm” in data set [2] (Inbred B primary males), roughly 15 cm in data set [2] (Inbred B secondary males) and roughly 12 cm in data set [3] (one application of GA3). Moreover, in data set [2] (Inbred B, GA3 concentration increased to 16 g/1000 m^2 of male plants), the “height of male parent plants” value is recorded as “increase further”. Also, the “number of secondary branches on the rachis” value in data set [2] (setting [4]) and in data set [3] (one GA application vs control) was “did not change significantly” in each case. Further, the primary rachis length entry in data set [2] (setting [4]) and in data set [3] (one GA application vs control) was “did not change significantly” in each case. The pollen score entry in data set [2] (Inbred B, one GA application vs control, visual score 1-9) was “did not change significantly”; in data set [2] (setting [5]) it was “reduced”; in data set [3] (one GA application vs control, visual score 1-9) it was “did not change significantly”. The “size of the main rachis” value in data set [2] (setting [5]) is “reduced”. Also, the “effect of a second application compared with a single application” value in data set [3] (2 sequential applications (V6 and before flowering)) is “not more favorable than a single application”.
